According to US20150374705A1, “Substances for treatment or relief of pain” (Shanghai Institues for Biological Sciences, priority 2012, published 2015):

Legend:
Assay type in all cases: in vivo
[1] = tested on: α5 subunit protein of GABAA receptor in dorsal root ganglion; test: Knock-down of α5 subunit of GABAA receptor in dorsal root ganglion, western blot; conditions: rat, intrathecal injection
Description: In western blot experiment, obtained dorsal root ganglion was lysed in RIPA (50 mM Tris (pH7.4), 150 mM NaCl, 1% Triton X-100, 1% sodium deoxycholate, 0.1% SDS as well as sodium orthovanadate, sodium fluoride, EDTA and leupeptin. The proteins were boiled at 100° C. for 5 minutes for denaturation. 10-20 μl samples were added into the prepared channels after the protein samples became cool. Then, electrophoresis was conducted at 60 V for 30 minutes. After the samples passed the boundary between the upper layer gel and the lower layer gel, the voltage was adjusted to 90 V until bromophenol blue reached the lower edge of the lower layer gel. After electrophoresis, the SDS gel that contained target bands was cut for transferring. Through electric transferring, the negative charged proteins were transferred to positive charged PVDF membrane. The blocking buffer that contained 5% skim milk powder was used to block the membrane for 1 hour to reduce unspecific binding. Then, the PVDF membrane was immersed in the blocking buffer containing primary antibody and incubated overnight at 4° C. or 1-2 hours at room temperature. […] Finally, PVDF membrane was incubated with the substrate of horse radish peroxidase ECL-PLUS for 5 minutes in dark to produce fluorescence signal. Then X-ray film was used to capture the fluorescence signal on PVDF membrane. […]

[2] = tested on: SNI model rats (neuropathic pain); test: Spared nerve injury (SNI) model, neuropathic pain, mechanical pain threshold; conditions: rat, intrathecal injection 7 days after SNI, threshold at 9-17 days
Description: Male SD rats (200-250 g) were used, 6 per group in the cage. All the animals were placed under 12 hours light/cycle (i.e. 12 hours light and 12 hours dark in each day), free to food and water. All the experiments were conducted under the condition that the observers were blind to pharmaceutical treatment.
Spared nerve injury model (SNI): 10% chloral hydrate was injected intraperitoneally to anesthetize rats. […] The muscle was longitudinally separated to expose the core of sciatic nerve and the branching below: tibial nerve, common peroneal nerve and sural nerve. The tibial nerve and common peroneal nerve were ligatured and cut and small sural nerve was retained, meanwhile preventing any injury. The muscle and skin were sutured layer by layer, and then antibiotics were injected intraperitoneally for antibacterial purpose. For detailed methods, please refer to Decosterd I and Woolf C J. Spared nerve injury: an animal model of persistent peripheral neuropathic pain. 2000 August; Pain 87(2):149-58.
Method for detecting mechanical hyperalgesia in rats: firstly CFA solution was injected in the thenar of rats. After 24 hours, mechanical hyperalgesia quantitative detection was adopted to measure the paw withdrawal of rats to normal and harmless mechanical stimulation. Evaluation was conducted according to reference (Chaplan S R et al., Quantitative assessment of tactile allodynia in the rat paw. J Neurosci Methods. 1994 July; 53(1):55-63). In this method, the von Frey fibers with different bending force (equivalent to the range of 1-50 g force) were used to apply harmless mechanical stimulation. The rats were placed in organic glass box with metal mesh plate, and the von Frey fibers were applied on the surface of leg thenar. The von Frey fibers were applied vertically to the surface of thenar to generate the force that will trigger slight resistance to the leg. 2-3 seconds were maintained for every leg thenar. If the leg withdrew suddenly, positive records were recorded. The threshold was the mean of the weight that caused 50% paw withdrawal response (5-6 paw withdrawal/10 stimulations) in overall 10 stimulations.
Compounds MRK 016, C2, C3, C4, C5, C6, C7, C8 or α5IA (A5I) were dissolved in 70% PGE400 (PGE400:water=70:30 in volume). For injection dose, MRK016 was 2 mg/kg body weight; A5I was 3 mg/kg body weight; C2, C3, C4, C5, C6, C7 and C8 were 3 mg/kg body weight.
MRK016-M3 was dissolved in 90% PGE400 (PGE400:water=90:10 in volume). The doses were 10 mg/kg, 3 mg/kg, 1 mg/kg and 0.3 mg/kg, respectively for oral administration.
The method for behavioral data statistics was unpaired t-test. *, p<0.05, represents significant difference.

[3] = tested on: CFA induced inflammatory pain model rats (mechanical pain); test: CFA induced inflammatory pain model, mechanical pain threshold; conditions: rat, spinal injection the day before CFA, measured every day
[4] = tested on: CFA induced inflammatory pain model rats (heat pain); test: CFA induced inflammatory pain model, heat pain threshold; conditions: rat, spinal injection the day before CFA, measured every day

In the case of “siRNA specific to the mRNA of α5-GABAA receptor: siRNA, sequence 5′GGUGCGAACAGACAUCUAUTT 3′ (chemistry not given here)”, the “Expression of the α5 subunit of GABAA receptor in dorsal root ganglion” value [1] is reported as “significantly knocked-out the expression”, the “Pain threshold in SNI model after siRNA” value [2] is reported as “significantly elevated pain threshold” and the “Mechanical pain threshold after siRNA” value [3] is reported as “inhibit the inflammatory pain efficiently”. The “Heat pain threshold after siRNA” value [4] was “inhibit the inflammatory pain efficiently”.
